Measurements reported in patent US9044474B2, “Compositions and methods for increasing drug efficacy in cancer” (The Ohio State University, priority 2010, dated 2015).
Counter-ions that a name gives are not always drawn.

Legend:
CLL cells = assay: Cell viability by annexin V/PI flow cytometry in CLL cells
Experimental: Percent of live cells was determined by staining with annexin V-fluorescein isothiocyanate and propidium iodide (PI). After exposure to agents, cells were washed with PBS and stained in 1× binding buffer (BD Biosciences, Franklin Lakes, N.J.). Cell viability was assessed by flow cytometry using a Beckman-Coulter Cytomics FC500 cytometer. Data were analyzed with the CXP Cytometer software package (Beckman-Coulter). A total of 10,000 cells were counted for each sample. The cells treated with flavopiridol were washed after 4 hours with PBS and re-suspended in regular growth medium (RPMI 1640) supplemented with 10% human serum and antibiotics for the remainder of the incubation time. […] For all the other conditions, cells were incubated with the respective drugs for 24 hours continuously.
CLL cells were suspended in buffer V (Amaxa kit, Lonza, Allendale, N.J.) and nucleofection was performed using program U016 (5 μg siRNA and 1×10^7 cells per cuvette). Scrambled siRNA and siRNAs to ATG5, ATG7 and ASK1 were purchased from Sigma-Aldrich. Cells were immediately suspended in warm, complete media supplemented with 10% human serum, and RNA was extracted after 36 hours. For CDK1 and CDK5, siRNAs were purchased from Applied Biosystems (Carlsbad, Calif.). Transfections were done using 5 nM siRNA per cuvette, and RNA was harvested at 48 hours.

p62 [1] = assay: p62 immunoblot in CLL cells treated in vitro; type: cell-based, human; settings: flavopiridol 2 μM, 4 hours
Experimental: (§1) Proteins extracted from whole cell lysates (50 μg/lane) were separated on polyacrylamide gels and transferred on nitrocellulose membrane. Antibodies used for immunoblots included LC3, IRE1α, TRAF2, PI3K III, ATG4C, ATG5-12, UVRAG, Beclin-1 (Cell Signaling, Boston, Mass.), GAPDH, Nrf2, ASK1, ULK1 (Santa Cruz Biotechnology), and Bif-1, ATG14-Barkor (Sigma-Aldrich, St Louis, Mo.). Species-appropriate secondary antibodies were obtained from BioRad Laboratories (Hercules, Calif.). Following antibody incubations, proteins were detected using a chemiluminescent substrate (BioRad Laboratories). For co-immunoprecipitations, TrueBlot beads (eBiosciences, San Diego, Calif.) and One-hour IP Western kit (GenScript, Piscataway, N.J.) were used according to manufacturer protocols. Quantification was done using FluorChem Q (Alpha Innotech, San Leandro Calif.).

p62 [2] = assay: p62 immunoblot in samples from CLL patients treated with flavopiridol; type: in vivo, human; settings: samples at 4.5 hours post flavopiridol infusion
Experimental: In this trial, CLL cells were collected pre- and post-therapy 4.5 hours, day 1 (n=16). By confocal fluorescence microscopy, both increased autophagosome formation (P=0.0011) and fusion with lysosomes is observed (FIG. 3F). […] The level of autophagy, as assessed by LC3 fluorescence intensity, was overall greater in non-responders versus responders in both pre- and post-treatment samples (P=0.018); however, the increase in intensity at 4.5 hours post- vs. pre-treatment was only slightly higher for non-responders compared to responders (fold change of 2.51 vs. 1.82, P=0.3445). […] Collectively, these studies provide evidence that our in vitro observations are relevant to the clinical setting.
as §1, with “For co-immunoprecipitations, TrueBlot beads (eBiosciences, San Diego, Calif.) and One-hour IP Western kit (GenScript, Piscataway, N.J.) were used according to manufacturer protocols.” left out

XBP1, IRE1, GRP78 = assay: Real-time RT-PCR of ER stress genes in CLL cells in vitro; type: cell-based, human; settings: CLL cells n=5; flavopiridol 2 μM, thapsigargin 1 μM, tunicamycin 3 μg/ml; CD52 control gene
Experimental: (§2) RNA was extracted using TRIzol reagent (Invitrogen, Carlsbad, Calif.) and purified using QIAGEN RNeasy columns (Qiagen, Valencia, Calif.). cDNA was prepared with SuperScript First-Strand Synthesis System (Invitrogen). Real-time PCR was performed using primers purchased from Applied Biosystems. Detection was performed using an ABI Prism 7700 sequence detection system (Applied Biosystems). Average relative expression (treatment compared with vehicle) was normalized to the internal control gene CD52. Primers to detect spliced XBP1 were designed using Primer 3 software and purchased from IDT. Samples were analyzed on 10% acrylamide gels.

XBP1, IRE1, GRP78, CHOP = assay: Real-time RT-PCR of ER stress genes in CLL cells from patients undergoing flavopiridol treatment; type: in vivo, human; settings: CLL patients n=10, 4.5 hour
Experimental: as §2

Jurkat cell line = assay: eIF2α phosphorylation immunoblot in cell lines (control); type: cell-based
Experimental: as §1

697 cells = assay: ChIP assay of ATF6 at GRP78 promoter in 697 cells; type: cell-based; settings: relative to IgG control
Experimental: (§3) In brief, cells were treated with 37% formaldehyde to ensure crosslinking of proteins to DNA. Cells were lysed and sonicated to shear the chromatin to fragments of approximately 500 bp. Sheared chromatin was incubated with ATF6 antibody (LifeSpan Biosciences, Seattle, Wash.), followed by precipitation, washing and reversing of the crosslinks Purified DNA was then analyzed by real-time quantitative PCR using primers to the GRP78 promoter region. Primers were designed using Primer 3 software and purchased from IDT (Coralville, Iowa).

[3] = system: ATF6 at GRP78 promoter region; assay: ChIP assay of ATF6 at GRP78 promoter in cells from CLL patients undergoing flavopiridol treatment; type: in vivo, human; settings: CLL patient samples before and 4.5 hour after flavopiridol infusion
Experimental: as §3

IRE1-ASK1-TRAF2 complex [4] = assay: Co-immunoprecipitation of IRE1-ASK1-TRAF2 complex in 697 cells; type: cell-based
Experimental: as §1

IRE1-ASK1-TRAF2 complex [5] = assay: Co-immunoprecipitation of IRE1-ASK1-TRAF2 complex in samples from flavopiridol-treated CLL patients; parameters: species or system human; settings: CLL patient cells in vivo following flavopiridol infusion
Experimental: as §1

JNK1 and p38MAPK = assay: Immunoblot of phosphorylated JNK1 and p38MAPK in CLL cells in vitro; type: cell-based, human; settings: flavopiridol 2 μM, thapsigargin 1 μM, F-ara-A 5 μM
Experimental: as §1

## CN1CC[C@H](c2c(O)cc(O)c3c(=O)cc(-c4ccccc4Cl)oc23)[C@H](O)C1 [flavopiridol, (cis-5,7-dihydroxy-2-(2-chlorophenyl)-8-[4-(3-hydroxy-1-methyl)-piperidin-yl]-1-benzopyran-4-one)hydrochloride]
CLL cells; CLL cells n=5, flavopiridol 2 μM
  effect of ASK1 siRNA vs scrambled siRNA on sensitivity to the agent: significantly (P=0.005) more resistant
CLL cells; CLL cells, annexin/PI negative, CQ 0.5 μM, flavopiridol 4 hours then washed, CQ continuous 24 hours
  effect of chloroquine addition on cell death caused by the agent: significantly enhances the cytotoxicity
CLL cells; CLL cells, viability at 24 hours, thapsigargin 1 μM, flavopiridol 2 μM
  effect of ATG5/ATG7 siRNA vs scrambled siRNA on cytotoxicity of the agent: significantly increased
p62 [1]
  p62 protein level: p62 levels are decreased
p62 [2]
  p62 protein expression: a decrease in protein expression
XBP1, IRE1, GRP78
  expression of ER stress genes XBP1, IRE1 and GRP78: significant, time-dependent increase in expression of ER stress genes XBP1, IRE1 and GRP78
XBP1, IRE1, GRP78, CHOP
  expression of XBP1, IRE1 and GRP78 genes, pre-treatment vs end of infusion: significant increases in XBP1, IRE1 and GRP78 genes
Jurkat cell line
  eIF2α phosphorylation: dramatic EIF2α phosphorylation
697 cells
  binding of GRP78 promoter region by ATF6: enhanced binding of the GRP78 promoter region by ATF6
[3]
  binding of GRP78 promoter region by ATF6: results were similar
IRE1-ASK1-TRAF2 complex [4]
  ASK1 and IRE1 protein in TRAF2 co-immunoprecipitates: increased levels of ASK1 and IRE1 protein in TRAF2 co-immunoprecipitates
IRE1-ASK1-TRAF2 complex [5]
  IRE1 and ASK1 association with TRAF2: increase in IRE1 and ASK1 association with TRAF2
JNK1 and p38MAPK
  phosphorylation of JNK1 and p38MAPK: induced the phosphorylation of both JNK1 and p38MAPK
